Here are results for five compounds from publication PMC6847200 (2019).

The structures appear in SMILES notation.

Common to all, as to assay: ITC
What all share (conditions): 100 mM KCl, 20 mM MgCl2; 50 mM K-HEPES pH 7.5, 30 °C; apparent

Test [1] deals with env1 (RNA, riboswitch) GGGUGUAAUCUCCAAAAUAUGGUUGGGGAGCCUCCACCAGUGAACCGUAAAAUCGCUGUCACCACCC
The subject of test [2] is env23 (RNA, riboswitch) GGGUGUAAUUCGGGGGAUUGGCCCCGGAGUAUCCACGACCGGACCAUAAUCCGGUGCAUCCACCC
Test [3] deals with env30 (RNA, riboswitch) GGACGUAGCCUGGGGGAUUGGCCCCAGGGCAUCCACGAGCUGGCCGCAACUAGCUGAGACCGUCC
Test [4] relates to env1 C51U (RNA, riboswitch) GGGUGUAAUCUCCAAAAUAUGGUUGGGGAGCCUCUACCAGUGAACCGUAAAAUCGCUGUCACCACCC
Test [5] concerns env1 C78A (RNA, riboswitch) GGGUGUAAUCUCCAAAAUAUGGUUGGGGAGCCUCCACCAGUGAACCGUAAAAUCGCUGUCAACACCC
Test [6] concerns env6 (RNA, riboswitch) GGACGUAAUCCUCCGAACAGGCGGGGGAGCAUCCACCGCCGGGCCUUAACCCGGUGUAACCGUCC
Test [7] concerns env1 Δ(U75,C76) (RNA, riboswitch) GGGUGUAAUCUCCAAAAUAUGGUUGGGGAGCCUCCACCAGUGAACCGUAAAAUCGCUGACCACCC
Test [8] deals with xpt U51C + U75C76 (RNA, riboswitch) GGACAUAUAAUCGCGUGGAUAUGGCACGCAAGUUUCCACCGGGCACCGUAAAUGUCCGUCACUAUGUCC
For test [9], the system named is env1 U75A (RNA, riboswitch) GGGUGUAAUCUCCAAAAUAUGGUUGGGGAGCCUCCACCAGUGAACCGUAAAAUCGCUGACACCACCC
The subject of test [10] is xpt + U75C76 (RNA, riboswitch) GGACAUAUAAUCGCGUGGAUAUGGCACGCAAGUUUCUACCGGGCACCGUAAAUGUCCGUCACUAUGUCC
The subject of test [11] is env1 C48A (RNA, riboswitch) GGGUGUAAUCUCCAAAAUAUGGUUGGGGAGCAUCCACCAGUGAACCGUAAAAUCGCUGUCACCACCC
Test [12] concerns env1 C47,48U (RNA, riboswitch) GGGUGUAAUCUCCAAAAUAUGGUUGGGGAGUUUCCACCAGUGAACCGUAAAAUCGCUGUCACCACCC
Test [13] relates to env1 A77U (RNA, riboswitch) GGGUGUAAUCUCCAAAAUAUGGUUGGGGAGCCUCCACCAGUGAACCGUAAAAUCGCUGUCUCCACCC
In test [14] the test system is env1 G21A,C79U (RNA, riboswitch) GGGUAUAAUCUCCAAAAUAUGGUUGGGGAGCCUCCACCAGUGAACCGUAAAAUCGCUGUCACUACCC

Take `Nc1nc2c(ncn2CCC(CO)CO)c(=O)[nH]1`: the KD in [1] was 2000 ± 100 nM.

As for `Nc1nc2c(ncn2COCCO)c(=O)[nH]1`, the KD in [1] was 560 ± 10 nM.

Consider `Nc1nc2c(ncn2[C@@H]2O[C@H](CO)[C@@H](O)[C@H]2O)c(=O)[nH]1`, for which the “KD,rG” value is given as 51 000 ± 4000 nM in test [2], 89 ± 10 nM in test [1] and 36 000 ± 1000 nM in test [3].

Take `Nc1nc2c(ncn2[C@H]2C[C@H](O)[C@@H](CO)O2)c(=O)[nH]1`: the “KD,dG” value in [4] is listed as 620 ± 180 nM; in [5], 41 000 ± 9000 nM; in test [7], 240 ± 50 nM; in test [9] it was 1600 ± 300 nM; in test [11], 7.1 ± 1.4 nM; in [12] it was 110 ± 10 nM. Further, the figures for the “KD,dG” value in test [13] and in test [14] were 250 ± 10 nM and 570 ± 30 nM, respectively. Also, the “KD,2′-dG” value worked out at 88 ± 3 nM in test [6], 290 ± 50 nM in [2], 34 ± 1 nM in [1] and 2400 ± 900 nM in test [3]. In addition, the “KD,app” value in test [8] was 1600 ± 100 nM; in test [10], 8100 ± 600 nM.

As to `O=c1[nH]cnc2nc[nH]c12`, the “KD,app” value in test [10] stood at 21000 ± 2000 nM.
